These results are taken from patent US20130096100A1, “DI(ARYLAMINO)ARYL COMPOUND” (ASTELLAS PHARMA INC., priority 2007, published 2013).

The test system of data set [1] is v1 expressing 3T3 cells (tumor). Nature of the data set: Antitumor effect on v1 expressing 3T3 cells inoculated in nude mice (Test Example 13). The following applies: BALB/c nude mice. In kind it is in vivo. As for the experimental part: 3×10^6 cells of v1 expressing 3T3 cells suspended in PBS were inoculated subcutaneously by injection to the back of 5 weeks old male BALB/c nude mice (Charles River Japan, Inc.). […] Administrations were performed once a day for 14 days, and body weight and tumor size were measured every other day. Tumor volume was calculated using the following formula.
[Tumor volume (mm^3)]=[Tumor major axis (mm)]×[tumor minor axis (mm)]^2×0.5
The antitumor effect of compound D was investigated by the similar procedure with the following exceptions. The administration of the compound was started after 6 days of the inoculation and carried out once a day for 10 days.

Data set [2] deals with T1, EML4-ALK fusion protein v1 (Homo sapiens, UniProt Q9UM73, D1529E/I1461V/K1491R).
T1 construct: FLAG (N); made in house
Nature of the data set: Inhibitory effect of compounds against the in vitro kinase activity of EML4-ALK fusion protein v1, single concentration (Test Example 12(3)). It is filed as biochemical. The following applies: final concentration 10 nM. The text has this: N-terminally FLAG-tagged EML4-ALK fusion protein v1 was inserted into a vector pMX-iresCD8 capable of co-expression of insert cDNA and cell surface antigen CD8 (J. Biol. Chem., 2001, vol. 276, p. 39012-39020) to create a vector FLAG-EML4-ALKv1/pMX-iresCD8 expressing both FLAG-EML4-ALKv1 and CD8. FLAG-EML4-ALKv1/pMX-iresCD8 was used to create a recombinant retrovirus in the same manner as described above and infected into mouse lymphoid cell line BA/F3 cells. Using a magnetic bead reagent for cell separation and a purification column (anti-CD8 monoclonal antibody immobilized on magnetic beads and a MiniMACS purification column; both are products of Miltenyi Biotec Inc.), cell surface CD8-expressing cells were purified conveniently. […] After washing 3 times with PBS, the cells were lysed in a lysis solution (50 mM Tris.HCl (pH 7.4), 150 mM NaCl, 1% Triton X100, 5 mM EDTA, 5 mM EGTA, 1 mM NaVO4, 1 mM DTT and protease inhibitor cocktail complete). The EML4-ALK fusion protein v1 present in the supernatant obtained after centrifugation was purified using ANTI-FLAG M2 Affinity Gel (SIGMA-ALDRICH Inc.) according to the method described in the product information document.
The EML4-ALK fusion protein v1 purified as above was investigated for its phosphorylation activity toward a peptide substrate using a kinase activity detection kit (HTRF KinEASE-TK; Cisbio Inc.). Using TK substrate 1, which was included in the kit, as the substrate, and after adding no ATP or 100 μM ATP, the mixtures were reacted at room temperature for 1 hour, and the count of HTRF was detected as recommended by the Kits manufacturer.

A further data set relates to 88 types of kinases. Description: Kinase inhibition profiling, 88 types of kinases (Test Example 6). In kind it is biochemical. The following applies: concentration of 100 nM.
In data set [3] the test system is human non-small cell lung cancer cell line HCC827 cells (mutant EGFR protein-expressing cells). Nature of the data set: Inhibitory effect against anchorage-independent cell growth of HCC827 cells (Test Example 4). The following applies: 120 h, spheroid plate, 5 days, CellTiter-Glo. It is filed as cell-based. As for the experimental part:
(§1) In a 96-well spheroid plate (Sumilon Celltight Spheroid 96U; Sumitomo Bakelite Co., Ltd., Japan), human non-small cell lung cancer cell line NCI-H2228 cells were seeded at 2000 cells per well in RPMI1640 medium (Invitrogen) containing 10% fetal bovine serum. NCI-H2228 cells are those expressing another EML4-ALK fusion protein, which is different from the EML4-ALK fusion protein v1 because it is encoded by an EML4-ALK fusion polynucleotide whose fusion point on EML4 cDNA is different from that of the EML4-ALK fusion polynucleotide v1, but whose ALK region is the same as that of the EML4-ALK fusion polynucleotide v1. The above NCI-H2228 cells seeded in the plate were cultured overnight under 5% CO2 at 37° C., followed by addition of a test compound (final concentration: 10 μM to 1 nM). As a negative control, DMSO used as a solvent was added at the same concentration as the test compound. Then, the cells were cultured under 5% CO2 at 37° C. for 5 days. A cell counting reagent (CellTiter-Glo™ Luminescent Cell Viability Assay; Promega) was added and agitated for 20 minutes, followed by measurement with a luminometer (ML3000 microtiter plate luminometer; Dynatech Laboratories).
Evaluation of Inhibitory Effect Against Anchorage-Independent Cell Growth of Human Non-Small Cell Lung Cancer Cell Line HCC827 Cells (Mutant EGFR (with Partial Deletion of Exon 19 in EGFR) Protein-Expressing Cells, American Type Culture Collection)
Evaluation was performed in the same manner as shown in Test Example 3.

Another data set deals with T2, MER (Homo sapiens, UniProt Q12866).
T2 construct: purchased Carna Biosciences Inc., Japan (contract measurement)
T2 sequence (Q12866 21-999): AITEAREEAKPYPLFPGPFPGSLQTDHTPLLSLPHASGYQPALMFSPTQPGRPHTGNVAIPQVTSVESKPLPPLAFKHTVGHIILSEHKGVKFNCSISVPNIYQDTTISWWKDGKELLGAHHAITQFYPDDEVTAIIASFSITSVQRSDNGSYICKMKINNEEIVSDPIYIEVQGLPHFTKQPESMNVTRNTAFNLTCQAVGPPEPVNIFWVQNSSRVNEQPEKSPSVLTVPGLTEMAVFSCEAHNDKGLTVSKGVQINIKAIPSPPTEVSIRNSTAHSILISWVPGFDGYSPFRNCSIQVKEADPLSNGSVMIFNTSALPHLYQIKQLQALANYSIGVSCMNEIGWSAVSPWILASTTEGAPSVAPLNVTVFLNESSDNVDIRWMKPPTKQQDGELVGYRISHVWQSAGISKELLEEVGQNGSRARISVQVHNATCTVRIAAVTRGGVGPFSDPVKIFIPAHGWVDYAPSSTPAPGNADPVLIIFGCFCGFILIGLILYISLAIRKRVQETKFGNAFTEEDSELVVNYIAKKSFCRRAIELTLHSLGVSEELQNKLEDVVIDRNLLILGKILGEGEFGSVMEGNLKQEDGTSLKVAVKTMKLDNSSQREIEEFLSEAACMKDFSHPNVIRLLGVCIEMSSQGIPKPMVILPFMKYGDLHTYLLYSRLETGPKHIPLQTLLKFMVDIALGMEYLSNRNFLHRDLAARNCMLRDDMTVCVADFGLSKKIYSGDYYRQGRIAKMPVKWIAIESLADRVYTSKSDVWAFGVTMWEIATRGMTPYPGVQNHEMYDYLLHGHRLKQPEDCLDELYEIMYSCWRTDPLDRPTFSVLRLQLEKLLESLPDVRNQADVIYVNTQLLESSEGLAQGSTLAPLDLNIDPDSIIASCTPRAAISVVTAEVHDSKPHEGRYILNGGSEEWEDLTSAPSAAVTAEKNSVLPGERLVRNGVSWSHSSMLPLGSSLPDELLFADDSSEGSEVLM
Description: Kinase inhibition profiling, MER (Test Example 6). In kind it is biochemical. The following applies: 100 nM; read-out: inhibitory activity against MER.

Data set [4] in a line: Toxicity test in rats, 7-day repeated oral administration (Test Example 5). It is filed as in vivo, SD rats. The following applies: 7 days; for Dose: Bone marrow inhibition / Dose: Exacerbation of common symptoms / Non-toxic dose: oral; for Dose: Moribund condition: SD, rat, in vivo, po. The text has this: Test compounds were each suspended in a 0.5% aqueous methylcellulose solution and repeatedly administered to SD rats (two females and four males in each group) by the oral route at each dose for 7 days.

In the next data set the target is T3, MUSK (Homo sapiens, UniProt O15146).
T3 sequence (O15146 24-869): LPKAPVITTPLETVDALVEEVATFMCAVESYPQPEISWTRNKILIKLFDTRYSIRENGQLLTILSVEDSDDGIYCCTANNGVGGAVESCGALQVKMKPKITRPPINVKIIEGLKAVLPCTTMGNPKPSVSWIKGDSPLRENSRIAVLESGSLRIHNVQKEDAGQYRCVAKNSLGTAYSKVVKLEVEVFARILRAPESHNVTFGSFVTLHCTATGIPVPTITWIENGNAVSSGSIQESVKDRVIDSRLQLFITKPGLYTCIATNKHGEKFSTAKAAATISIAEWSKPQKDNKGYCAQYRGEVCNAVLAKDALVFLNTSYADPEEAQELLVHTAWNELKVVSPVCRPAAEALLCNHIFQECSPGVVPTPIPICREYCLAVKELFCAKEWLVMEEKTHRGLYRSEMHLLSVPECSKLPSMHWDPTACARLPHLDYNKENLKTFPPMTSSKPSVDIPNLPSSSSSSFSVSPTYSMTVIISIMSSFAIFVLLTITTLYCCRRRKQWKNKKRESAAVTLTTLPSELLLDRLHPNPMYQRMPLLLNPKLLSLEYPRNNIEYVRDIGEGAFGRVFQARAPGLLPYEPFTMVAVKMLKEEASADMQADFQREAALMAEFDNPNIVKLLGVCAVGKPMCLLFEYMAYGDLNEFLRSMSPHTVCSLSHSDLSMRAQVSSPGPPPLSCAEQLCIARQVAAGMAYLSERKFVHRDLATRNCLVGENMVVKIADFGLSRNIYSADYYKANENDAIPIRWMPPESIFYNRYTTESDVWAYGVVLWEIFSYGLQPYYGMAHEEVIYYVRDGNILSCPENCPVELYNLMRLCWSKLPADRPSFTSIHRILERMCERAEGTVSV
Description: Kinase inhibition profiling, MUSK (Test Example 6). In kind it is biochemical. Further details: purchased Carna Biosciences Inc., Japan (contract measurement). The following applies: 100 nM; read-out: inhibitory activity against MUSK.

Data set [5] concerns HCC-827 cells (mutant EGFR protein-expressing cells). The following applies: conditions of Non-patent Document 6; cited from earlier work.
For data set [6], the system named is human non-small cell lung cancer cell line NCI-H2228 cells (EML4-ALK fusion protein-expressing cells). Description: Inhibitory effect against anchorage-independent cell growth of NCI-H2228 cells (Test Example 3). It is filed as cell-based. The following applies: 120 h, spheroid plate, 5 days, CellTiter-Glo.
Excerpt: Measurement for anchorage-independent cell growth (colony method, etc) has been known to be a system for investigating the anticancer action (pharmacological effect) of test compounds (Clinical Oncology, second edition, Cancer and Chemotherapy Publishers Inc.). In place of the colony method, there is a following method using spheroid plates for measuring the growth of non-attached cells.
as §1

In a further data set the target is T4, MNK1 (Homo sapiens, UniProt Q9BUB5).
T4 construct: purchased Carna Biosciences Inc., Japan (contract measurement)
Nature of the data set: Kinase inhibition profiling, MNK1 (Test Example 6). In kind it is biochemical. The following applies: 100 nM; read-out: inhibitory activity against MNK1.

T4 sequence (Q9BUB5 whole entry): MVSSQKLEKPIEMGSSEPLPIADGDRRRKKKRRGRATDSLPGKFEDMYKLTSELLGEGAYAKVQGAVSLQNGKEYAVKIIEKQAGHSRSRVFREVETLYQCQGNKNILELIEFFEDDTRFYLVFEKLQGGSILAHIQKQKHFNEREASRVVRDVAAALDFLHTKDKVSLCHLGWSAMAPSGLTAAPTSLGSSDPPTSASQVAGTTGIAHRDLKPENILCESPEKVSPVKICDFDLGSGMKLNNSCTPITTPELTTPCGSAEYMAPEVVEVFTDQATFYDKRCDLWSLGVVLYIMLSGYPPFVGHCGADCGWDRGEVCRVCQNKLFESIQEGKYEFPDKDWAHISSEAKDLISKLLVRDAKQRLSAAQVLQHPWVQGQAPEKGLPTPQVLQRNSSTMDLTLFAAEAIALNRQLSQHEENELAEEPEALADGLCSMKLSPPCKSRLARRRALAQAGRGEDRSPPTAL
T1 sequence (Q9UM73 with tags, fused parts or gaps I1461V/K1491R/D1529E): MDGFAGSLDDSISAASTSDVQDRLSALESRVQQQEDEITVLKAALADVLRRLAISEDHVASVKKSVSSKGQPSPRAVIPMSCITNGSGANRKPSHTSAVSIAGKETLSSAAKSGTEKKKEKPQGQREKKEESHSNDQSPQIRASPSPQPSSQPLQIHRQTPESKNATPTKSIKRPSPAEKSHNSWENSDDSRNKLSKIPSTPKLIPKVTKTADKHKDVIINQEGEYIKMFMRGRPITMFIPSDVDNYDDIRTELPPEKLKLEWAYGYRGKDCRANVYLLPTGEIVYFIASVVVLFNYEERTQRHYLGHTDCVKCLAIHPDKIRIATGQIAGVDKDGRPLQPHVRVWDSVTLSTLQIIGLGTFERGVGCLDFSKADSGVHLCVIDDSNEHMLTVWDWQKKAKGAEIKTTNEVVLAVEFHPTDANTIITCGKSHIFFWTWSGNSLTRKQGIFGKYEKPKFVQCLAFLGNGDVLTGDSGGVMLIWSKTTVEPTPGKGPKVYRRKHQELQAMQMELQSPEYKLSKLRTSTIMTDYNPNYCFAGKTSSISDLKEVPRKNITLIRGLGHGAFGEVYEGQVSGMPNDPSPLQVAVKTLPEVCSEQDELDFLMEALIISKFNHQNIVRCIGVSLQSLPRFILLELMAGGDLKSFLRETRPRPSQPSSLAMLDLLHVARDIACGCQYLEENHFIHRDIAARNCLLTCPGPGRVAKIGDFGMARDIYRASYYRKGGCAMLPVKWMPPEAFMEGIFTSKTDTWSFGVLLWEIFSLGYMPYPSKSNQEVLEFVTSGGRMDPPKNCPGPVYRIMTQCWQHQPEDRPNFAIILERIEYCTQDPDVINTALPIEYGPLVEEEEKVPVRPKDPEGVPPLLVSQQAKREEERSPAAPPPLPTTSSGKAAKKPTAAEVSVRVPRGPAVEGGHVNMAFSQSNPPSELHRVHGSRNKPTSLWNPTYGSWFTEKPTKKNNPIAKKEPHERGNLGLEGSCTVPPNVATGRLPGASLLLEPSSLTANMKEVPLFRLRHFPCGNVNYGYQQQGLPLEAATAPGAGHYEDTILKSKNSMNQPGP

For `COc1cc(N2CCC(N3CCN(C)CC3)CC2)ccc1Nc1ncc(Cl)c(Nc2ccccc2S(=O)(=O)C(C)C)n1` [Compound C], the “inhibition of the growth of v1 expressing 3T3 cells (tumor)” value in data set [1] (oral 10 mg/kg once a day for 14 days, started 7 days after inoculation) is reported as 103%.
On to `CNS(=O)(=O)c1ccccc1Nc1nc(Nc2ccc(N3CCN(C)CC3)cc2OC)ncc1Br` [Compound D, 2-[(5-bromo-2-{[2-methoxy-4-(4-methylpiperazin-1-yl)phenyl]amino}pyrimidin-4-yl)amino]-N-methylbenzenesulfonamide], for which, in [1] (once a day for 10 days, started 6 days after inoculation), the “inhibition of the growth of v1 expressing 3T3 cells (tumor)” value is recorded as 101%. The inhibition at 0.01 µM in [2] is 99%.
In the case of `COc1cc(N2CCC(N3CCN(C)CC3)CC2)ccc1Nc1ncc(Cl)c(Nc2ccccc2S(=O)(=O)C(C)C)n1` [TAE684, 5-chloro-N^4-[2-(isopropylsulfonyl)phenyl]-N^2-{2-methoxy-4-[4-(4-methylpiperazin-1-yl)piperidin-1-yl]phenyl}pyrimidine-2,4-diamine, reference compound], the “number of types of kinases (of 88) with 50% or more inhibitory activity” value in the data set with 88 types of kinases is 29 types of kinases. In addition, the figures for the IC50 in [3] and in [6] were 301 nM and 8.5 nM, respectively. Further, the inhibition at 0.1 µM at MER was ≥ 90%; at MUSK, ≥ 90%; on MNK1, 4.8%. Further, the “Dose: Bone marrow inhibition” value in [4] (female SD rats (2 rats)) and in [4] (male SD rats (4 rats)) was 10 mg/kg throughout. Besides, the “Dose: Exacerbation of common symptoms” value in [4] (female SD rats (2 rats)) is recorded as 30 mg/kg; in data set [4] (male SD rats (4 rats)), 100 mg/kg. The Non-toxic dose in data set [4] (female SD rats (2 rats)) and in [4] (male SD rats (4 rats)) was 3 mg/kg each time. The “Dose: Moribund condition” value in data set [4] (female) was 100 mg/kg; in [4] (male), “(>100) mg/kg”. The “growth inhibitory activity, inhibition rate” value in [5] was 7.5%.
